Our source for the EC50 values is BindingDB's records for doi:10.1021/jm9805384 (Agouron Pharmaceuticals, 1999).

Structures are written as SMILES.

One experiment is described as follows: The EC50 was calculated as the concentration of drug that increased the percentage of formazan production in drug treated, virus infected cells to 50% of that produced by drug free uninfected cells on serotype 2.
Broadly, the EC50 is the concentration giving half of the maximal effect. Regarding `CCOC(=O)/C=C/[C@H](CCC(N)=O)NC(=O)[C@H](Cc1ccccc1)NC(=O)[C@H](CC(C)C)NC(=O)OCc1ccccc1` [(E)-(S)-4-[(S)-2-((S)-2-Benzyloxycarbonylamino-4-methyl-pentanoylamino)-3-phenyl-propionylamino]-6-carbamoyl-hex-2-enoic acid ethyl ester], the EC50 was 1600 nM.

The nature of the next experiment: Increased percentage of formazan production in drug treated virus infected cells to equal 50% control drug free uninfected cells on serotype 14.
In the case of `CCOC(=O)/C=C/[C@H](C[C@@H]1CCNC1=O)NC(=O)[C@H](Cc1ccccc1)NC(=O)[C@@H](NC(=O)OCc1ccccc1)C(C)C` [ethyl (2E,4S)-4-[(2S)-2-[(2S)-2-{[(benzyloxy)carbonyl]amino}-3-methylbutanamido]-3-phenylpropanamido]-5-[(3S)-2-oxopyrrolidin-3-yl]pent-2-enoate], the EC50 turned out to be 30 nM. `CCOC(=O)/C=C/[C@H](C[C@@H]1CCCNC1=O)NC(=O)[C@@H](CC(=O)[C@@H](NC(=O)c1cc(C)on1)C(C)C)Cc1ccc(F)cc1` [(E)-(S)-4-{(2R,5S)-2-(4-Fluoro-benzyl)-6-methyl-5-[(5-methyl-isoxazole-3-carbonyl)-amino]-4-oxo-heptanoylamino}-5-((S)-2-oxo-piperidin-3-yl)-pent-2-enoic acid ethyl ester]: the EC50 is 1 nM. On the same count and under the same terms, with `CCOC(=O)/C=C/[C@H](C[C@@H]1CCCNC1=O)NC(=O)[C@H](Cc1ccc(F)cc1)NC(=O)[C@@H](NC(=O)c1cc(C)on1)C(C)C` [(E)-(S)-4-((S)-3-(4-Fluoro-phenyl)-2-{(S)-3-methyl-2-[(5-methyl-isoxazole-3-carbonyl)-amino]-butyrylamino}-propionylamino)-5-((S)-2-oxo-piperidin-3-yl)-pent-2-enoic acid ethyl ester] the figure was 20 nM; with `CCOC(=O)/C=C/[C@H](CN1CCNC1=O)NC(=O)[C@H](Cc1ccccc1)NC(=O)[C@H](CC(C)C)NC(=O)OCc1ccccc1` [(E)-(R)-4-[(S)-2-((S)-2-Benzyloxycarbonylamino-4-methyl-pentanoylamino)-3-phenyl-propionylamino]-5-(2-oxo-imidazolidin-1-yl)-pent-2-enoic acid ethyl ester], 600 nM. `CCOC(=O)/C=C/[C@H](C[C@@H]1CCCNC1=O)NC(=O)[C@H](Cc1ccccc1)NC(=O)[C@H](CC(C)C)NC(=O)OCc1ccccc1` [(E)-(S)-4-[(S)-2-((S)-2-Benzyloxycarbonylamino-4-methyl-pentanoylamino)-3-phenyl-propionylamino]-5-((S)-2-oxo-piperidin-3-yl)-pent-2-enoic acid ethyl ester] had an EC50 of 30 nM.

As for `CCOC(=O)/C=C/[C@H](CCC(=O)NC)NC(=O)[C@H](Cc1ccccc1)NC(=O)[C@H](CC(C)C)NC(=O)OCc1ccccc1` [(E)-(S)-4-[(S)-2-((S)-2-Benzyloxycarbonylamino-4-methyl-pentanoylamino)-3-phenyl-propionylamino]-6-methylcarbamoyl-hex-2-enoic acid ethyl ester], the EC50 was 5600 nM. On the same count and under the same terms, with `CCOC(=O)/C=C/[C@H](CCC(=O)N(C)C)NC(=O)[C@H](Cc1ccccc1)NC(=O)[C@H](CC(C)C)NC(=O)OCc1ccccc1` [(E)-(S)-4-[(S)-2-((S)-2-Benzyloxycarbonylamino-4-methyl-pentanoylamino)-3-phenyl-propionylamino]-6-dimethylcarbamoyl-hex-2-enoic acid ethyl ester] the figure was 4000 nM; with `CCOC(=O)/C=C/[C@H](C[C@@H]1CCNC1=O)NC(=O)[C@H](Cc1ccc(F)cc1)NC(=O)[C@@H](NC(=O)c1cc(C)on1)C(C)C` [AG7088 analogue 2a], 10 nM. In turn, `CCOC(=O)/C=C/[C@H](C[C@@H]1CCNC1=O)NC(=O)[C@H](Cc1ccc(F)cc1)NC(=O)[C@@H](NC(=O)c1cc(C)on1)C(C)(C)C` [(E)-(S)-4-[(S)-2-{(S)-3,3-Dimethyl-2-[(5-methyl-isoxazole-3-carbonyl)-amino]-butyrylamino}-3-(4-fluoro-phenyl)-propionylamino]-5-((S)-2-oxo-pyrrolidin-3-yl)-pent-2-enoic acid ethyl ester] displayed an EC50 of 10 nM.
